Data: US5922875A, “Aromatic acid diamides with antigastrin activity, a method for their preparation and their pharmaceutical use” (Rotta Research Laboratorium S.p.A., priority 1995, dated 1999)
Like-named read-outs stand apart in the source and are kept apart here.

Tests used:
[1] = test system: acid secretion induced by pentagastrin; test: In vivo gastric anti-secretory activity in the anaesthetised rat, pentagastrin stimulation; conditions: for ED50: iv, read-out: Activity (ID50); for times more powerful than CR 2194 / times more powerful than cimetidine: ID50 comparison, rat I.V.
Procedure: Gastric secretion was stimulated by pentagastrin and the method of Lai [Gut 5, (1964), 327-341] was used with slight modifications [Makovec et al, J.Med.Chem. 35 (1992), 28-38].
Pentagastrin dissolved in physiological saline was perfused for 120 minutes at a rate of 30 mcg/kg/h. After 60 minutes of perfusion (basal stimulation), the product to be tested was administered intravenously (I.V.) in bolus form, perfusion of the stimulant continuing for the remaining 60 minutes. The activity of the product was evaluated as the percentage reduction in acid secreted after the administration of the product with respect to the basal acidity measured in the first 60 minutes, during which time only pentagastrin was present.
The antagonists tested were administered at different doses in such a way as to enable the ID50 to be calculated, that is, the dose (in mg/kg I.V.) capable of inhibiting the effect of pentagastrin by 50%.

rats = test: Anxiolytic activity, elevated plus-maze in rats; format: in vivo, rat
Procedure: It has in fact recently been postulated that the central CCK-B receptor plays an important role in anxiety. This accords with studies also carried out in man which have shown that the central CCK-B mechanisms have an important function in the mediation of panic attacks [Bradwejn, J.et al; J.Psychopharmacology 6 (1992), 345]. In order to confirm this hypothesis, the anxiolytic activities of several of the most powerful CCK-B antagonists of the invention were evaluated by the method of the "elevated plus-maze" in rats, carried out in accordance with Pellow et al. [J. of Neurosc. Meth. 14(1985), 149-167]. A labyrinth was used in which the length of the cross arm was about 45 cm placed at a height from the ground of 70 cm. On this experimental model, a compound having anxiolytic activity produces a percentage increase in the stay time in the open arms and a percentage increase in the number of entries into the open arms.
The results obtained are given in Table 5 below where the activities obtained with different doses of the compound 4 administered intraperitoneally (IP) are given in comparison with a group of animals treated with a physiological saline in the same way.

central CCK-B receptor = target: T1, central CCK-B receptor (Cavia porcellus, UniProt H0VZC5); test: Inhibition of binding of [3H][N-methyl-N-leucine]CCK-8 to guinea pig cortical membranes (anti-CCK-B in vitro)
T1 construct: The cerebral cortices of male albino guinea pigs were therefore used; from tissue; host or cells: cerebral cortex membranes of male albino guinea pigs
T1 sequence (H0VZC5 1-426): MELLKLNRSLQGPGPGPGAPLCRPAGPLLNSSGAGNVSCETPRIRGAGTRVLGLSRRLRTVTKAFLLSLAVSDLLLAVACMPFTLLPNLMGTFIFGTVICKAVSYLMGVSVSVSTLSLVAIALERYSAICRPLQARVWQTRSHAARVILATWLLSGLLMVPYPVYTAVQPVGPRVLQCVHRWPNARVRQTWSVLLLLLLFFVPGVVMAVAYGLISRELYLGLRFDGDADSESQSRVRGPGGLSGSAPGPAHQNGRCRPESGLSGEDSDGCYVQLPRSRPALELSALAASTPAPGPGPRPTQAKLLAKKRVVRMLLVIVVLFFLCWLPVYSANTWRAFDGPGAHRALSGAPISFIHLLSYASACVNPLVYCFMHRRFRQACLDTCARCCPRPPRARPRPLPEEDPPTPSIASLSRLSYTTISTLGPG
Procedure: The capacity of the compounds which are the subject of the invention to interact with the central CCK-B receptor was evaluated with the use of [3-H][N-methyl-N-leucine]CCK-8. […] The cerebral cortices of male albino guinea pigs were therefore used, the method given above being followed with slight modifications [Makovec et al.; Bioorganic & Med. Chem. Letters 3 (5)(1993), 861-866] so as to give a membrane content corresponding to about 300 mcg of protein/mL.

[2] = target: T2, type-B cholecystokynin (CCK-B) or gastrin receptors (Oryctolagus cuniculus, UniProt P46627); test: Inhibition of the gastrin-induced increase of cytosolic calcium in rabbit gastric mucosa cells; format: cell-based
T2 construct: rabbit gastric mucosa cells were prepared by conventional techniques; endogenous in cells; host or cells: freshly isolated rabbit gastric mucosa cells (collagenase/pronase digestion)
T2 sequence (P46627 1-452): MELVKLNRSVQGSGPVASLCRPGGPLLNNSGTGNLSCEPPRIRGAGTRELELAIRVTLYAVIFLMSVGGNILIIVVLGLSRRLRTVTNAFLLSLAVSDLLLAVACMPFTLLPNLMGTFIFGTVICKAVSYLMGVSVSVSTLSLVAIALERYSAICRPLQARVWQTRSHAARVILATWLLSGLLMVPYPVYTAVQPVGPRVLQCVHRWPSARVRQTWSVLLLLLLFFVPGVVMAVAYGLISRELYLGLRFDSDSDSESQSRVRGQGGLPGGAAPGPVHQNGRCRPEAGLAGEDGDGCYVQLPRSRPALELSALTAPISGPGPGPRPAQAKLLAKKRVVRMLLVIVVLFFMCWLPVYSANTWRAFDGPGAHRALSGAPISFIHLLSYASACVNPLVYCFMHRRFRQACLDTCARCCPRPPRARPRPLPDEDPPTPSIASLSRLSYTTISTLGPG
Source text: The parietal cells of the gastric mucosa are responsible for the secretion of HCl. They present specific membrane receptors which may be activated by gastrin and which have been defined as type-B cholecystokynin (CCK-B) or gastrin receptors.
Since it has been observed that the activation of the CCK-B receptors by gastrin results in a raising of the levels of cytosolic calcium ions, a technique has been used for measuring the increase in intracellular calcium induced by gastrin in the presence and absence of the compounds which are the subject of the invention, as an index of the anti-gastrin activity of the compounds themselves.
Suspensions (0.8×10^6 /ml) of rabbit gastric mucosa cells were prepared by conventional techniques with the use of collagenase and pronase as digestive enzymes; the estimation of the [Ca^2+ ]i values, basal or achieved after stimulation of the cell system was carried out in accordance with Grynkiewicz et al [J.Biol.Chem 260 (1985), 3440]. In the control samples the cells were stimulated with […] while in the samples in which the effect of the compounds in question was evaluated, the cells were incubated therewith before stimulation with gastrin. The results are expressed as percentage increases in [Ca^2+ ]i with respect to the control value. The anti-gastrin activity of the compounds was expressed as the IC50 value, that is, the concentration (in μmoles/liter) at which the response to the stimulus induced by the gastrin was reduced by 50%. The results thus obtained for several compounds of the invention are given in Table 3 which also gives an index formed from the ratio between the peripheral anti-gastrin activity just described and the displacement activity derived from the study of binding to the cortical receptors of guinea pigs described above.

[3] = target: T3, cholecystokynin receptor (CCK-A) (Cavia porcellus, UniProt Q63931); test: Anti-CCK-A activity, guinea pig gall bladder stimulated in vitro by CCK-8; conditions: selectivity CCK-B vs CCK-A
T3 construct: The experimental model used was the guinea pig gall bladder stimulated in vitro by CCK-8; from tissue; host or cells: guinea pig gall bladder in vitro
T3 sequence (Q63931 1-430): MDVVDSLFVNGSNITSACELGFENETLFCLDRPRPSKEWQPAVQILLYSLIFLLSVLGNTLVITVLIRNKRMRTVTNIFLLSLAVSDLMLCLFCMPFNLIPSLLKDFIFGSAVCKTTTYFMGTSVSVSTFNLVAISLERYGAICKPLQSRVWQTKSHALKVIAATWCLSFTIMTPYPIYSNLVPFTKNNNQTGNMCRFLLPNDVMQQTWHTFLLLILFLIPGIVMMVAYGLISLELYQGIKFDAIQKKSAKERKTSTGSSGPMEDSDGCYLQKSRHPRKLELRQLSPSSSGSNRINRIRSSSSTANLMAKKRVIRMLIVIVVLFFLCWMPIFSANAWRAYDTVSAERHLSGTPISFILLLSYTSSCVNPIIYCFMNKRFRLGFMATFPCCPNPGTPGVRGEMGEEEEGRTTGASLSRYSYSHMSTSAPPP
Source text: The experimental model used was the guinea pig gall bladder stimulated in vitro by CCK-8 according to the method described by Makovec et al. [(Arzneim. Forsch/Drug. Res. 35 (7), 1048-1051 (1985)].

CCK-B receptors = conditions: guinea pigs, Knapp et al. 1990; cited from earlier work
[4] = I.V. bolus, rat, pentagastrin perfusion
[5] = displacement of [3H][N-methyl-N-leucine]CCK-8, cortical membrane in guinea pigs, read-out: IC50
[6] = cells stimulated with 5×10^-8 gastrin, [Ca2+]i

## O=C(O)CC(CC(=O)Nc1c(Cl)cccc1C(=O)N1CCC2(CCCC2)CC1)c1cccc2ccccc12 (stereo not drawn) [Compound 5]
[1]; [4]
  ED50: 2.6 mg/kg

## Cc1cc(C)c(NC(=O)CC(CC(=O)O)c2cccc3ccccc23)c(C(=O)N2CCC3(CCCC3)CC2)c1 (stereo not drawn) [Compound 4]
rats; 0.03 mg/kg I.P., rat
  % Effect VS controls (time): 10.4%
  % Effect Vs controls (entries): 19.3%
  Entries to open arm/total entries (%): 36.4%
  Time in open arm/total time (%): 21.1%
rats; 0.3 mg/kg I.P., rat
  % Effect VS controls (time): 47.9%
  % Effect Vs controls (entries): 39.3%
  Entries to open arm/total entries (%): 42.5%
  Time in open arm/total time (%): 28.2%
rats; 0.3 mg/kg I.P., significant vs saline controls
  percentage stay time in the open arms compared with controls: increases the percentage stay time in the open arms
rats; 3.0 mg/kg I.P., rat
  % Effect VS controls (time): 4.2%
  % Effect Vs controls (entries): 11.5%
  Entries to open arm/total entries (%): 34.0%
  Time in open arm/total time (%): 19.9%
rats; dose range 0.03-3 mg/kg I.P.
  percentage number of entries into the open arm compared with the controls: increases the percentage number of entries into the open arm
rats; plus maze, rat, I.P.
  anxiolytic effect: displays an anxiolytic effect
Central CCK-B receptor; [5]
  IC50: 24 nM
Central CCK-B receptor; ratio of binding IC50 values
  times less active than pentagastrin: 8 times
[1]
  times more powerful than CR 2194: 10-50 times
  times more powerful than cimetidine: 2-10 times
[1]; [4]
  ED50: 0.2 mg/kg
[2]; [6]
  IC50: 4 nM
[2]; gastrin-induced [Ca2+]i in rabbit gastric mucosa cells
  IC50: 4 nM
[3]
  affinity times higher for the gastrin receptor (CCK-B) than for the cholecystokynin receptor (CCK-A): at least 300 times

## Cc1ccc(NC(=O)CC(CC(=O)O)c2cccc3ccccc23)c(C(=O)N2CCC3(CCCC3)CC2)c1 (stereo not drawn) [Compound 3]
Central CCK-B receptor; [5]
  IC50: 188 nM
[2]; [6]
  IC50: 30 nM

## CSCC[C@H](NC(=O)[C@H](Cc1c[nH]c2ccccc12)NC(=O)CCNC(=O)OC(C)(C)C)C(=O)N[C@@H](CC(=O)O)C(=O)N[C@@H](Cc1ccccc1)C(N)=O [Pentagastrin, reference compound]
Central CCK-B receptor; [5]
  IC50: 3 nM

## O=C(O)CC[C@@H](NC(=O)c1cc(Cl)cc(Cl)c1)C(=O)N1CCC2(CCCC2)CC1 [CR 2194, reference compound]
[1]; [4]
  ED50: 11 mg/kg

## O=C(O)CCC(NC(=O)c1cccc2ccccc12)C(=O)Nc1cccc(C(=O)N2CCC3(CCCC3)CC2)c1 (stereo not drawn) [Compound 12]
Central CCK-B receptor; [5]
  IC50: > 1000 nM
[1]; [4]
  ED50: > 10 mg/kg

## O=C(O)CC(CC(=O)Nc1cc2ccccc2cc1C(=O)N1CCC2(CC1)OCCO2)c1cccc2ccccc12 (stereo not drawn) [Compound 14]
Central CCK-B receptor
  IC50: 1080 nM
[1]; Rattus norvegicus
  ED50: 7.9 mg/kg

## Cc1cc(C)c(NC(=O)CC(CC(=O)O)c2cccc(Cl)c2)c(C(=O)N2CCC3(CCCC3)CC2)c1 (stereo not drawn) [Compound 16]
Central CCK-B receptor; [5]
  IC50: 395 nM
[2]; [6]
  IC50: 82 nM

## COc1cc(NC(=O)CC(CC(=O)O)c2cccc3ccccc23)c(C(=O)N2CCC3(CCCC3)CC2)cc1OC (stereo not drawn) [Compound 10]
Central CCK-B receptor; [5]
  IC50: 820 nM
[2]; [6]
  IC50: > 300 nM

## O=C(O)CC(CC(=O)Nc1cc2ccccc2cc1C(=O)N1CCC2(CCCCC2)CC1)c1cccc2ccccc12 (stereo not drawn) [Compound 18]
Central CCK-B receptor; [5]
  IC50: 661 nM
[2]; [6]
  IC50: 105 nM

## O=C(O)CC(CC(=O)Nc1cc2ccccc2cc1C(=O)N1CCC2(CCCC2)CC1)c1cccc2ccccc12 (racemic) [Compound 13, 3-(DL)-(1-naphthyl)-5-[2'-carbamoyl(8-azaspiro[4.5]dec-8-yl)]-3'-naphthylamino]-5-oxopentanoic acid]
Central CCK-B receptor; [5]
  IC50: 225 nM
[1]
  times more powerful than CR 2194: 10-50 times
  times more powerful than cimetidine: 2-10 times
[1]; [4]
  ED50: 1 mg/kg
[2]; [6]
  IC50: 37 nM

## CN(C(=O)CC(CC(=O)O)c1cccc2ccccc12)c1ccccc1C(=O)N1CCC2(CCCC2)CC1 (stereo not drawn) [Compound 17]
Central CCK-B receptor; [5]
  IC50: > 1000 nM

## CN/C(=N/CCSCc1nc[nH]c1C)NC#N [Cimetidine, cimetidine, reference compound]
[1]; [4]
  ED50: 2.5 mg/kg

## [3-H][N-methyl-N-leucine]CCK-8
CCK-B receptors
  affinity times higher for the receptors of the cortex (CCK-B) than those of the pancreas (CCK-A): about 4000 times

## O=C(O)CC(CC(=O)Nc1cc(Cl)ccc1C(=O)N1CCC2(CCCC2)CC1)c1cccc2ccccc12 (stereo not drawn) [Compound 6]
Central CCK-B receptor; [5]
  IC50: 1240 nM
[2]; [6]
  IC50: 140 nM
